Data published in US20240199702A1, “CELL-PERMEABLE CYCLIC PEPTIDES AND USES THEREOF” (Unnatural Products Inc., priority 2021, published 2024).
Where a SMILES comes first, the peptide text is derived from it. [ ]: non-standard residue; d: D form. The star is where a group is joined. ξ: configuration not given here. Ala(thiazol-5-yl) = N[C@@H](Cc1cncs1)C(=O)O; Ala(4-thiazolyl) = N[C@@H](Cc1cscn1)C(=O)O; NMePhe(4-F) = CN[C@@H](Cc1ccc(F)cc1)C(=O)O; Phe(4-Cl) = N[C@@H](Cc1ccc(Cl)cc1)C(=O)O; Phe(4-F) = N[C@@H](Cc1ccc(F)cc1)C(=O)O; NMeF = CN[C@@H](Cc1ccccc1)C(=O)O; NMeNva = CCC[C@H](NC)C(=O)O; NMeV = CN[C@H](C(=O)O)C(C)C; hSer = N[C@@H](CCO)C(=O)O; NMeA = CN[C@@H](C)C(=O)O; dNMeA = CN[C@H](C)C(=O)O; ξNMeV = CNC(C(=O)O)C(C)C; Aze = O=C(O)[C@@H]1CCN1; NBuGly = CCCCNCC(=O)O; Butyryl = CCCC(=O)*; Nme = COCCNCC(=O)O; NEtG = CCNCC(=O)O; Sar = CNCC(=O)O

Experiments:
[1] = system: MOLM-13 cells; assay: Cellular Fluorescence Assay 1 (CellTiter-Glo, 72 hours); format: cell-based
Protocol: Cellular Fluorescence Assay 1
(§1) MOLM-13 cells were grown in suspension in T75 flasks in RPMI medium with 10% fetal bovine serum (FBS) at 37° C. with 5% CO2. 40 μL ofMOLM-13 cells were plated into columns 1-22 of white, flat bottom, 384 well plates at a density of 1,000 cells per well in RPMI with 10% FBS. Columns 23 and 24 were filled with 40 μL of media as a positive control. 100 nL of compounds dissolved in DMSO were pin transferred into columns 3-22 of the 384 well plate. Columns 1 and 2 served as negative control wells. Plates were incubated for 72 hours at 37° C. with 5% CO2. After incubation, the cells were given 10 μL of CellTiter-Glo® (Promega®). Luminescence was read on a Molecular Devices SpectraMax i3x plate reader.

[2] = system: WaGa cells; assay: Cellular Fluorescence Assay 3 (CellTiter-Glo, 72 hours); format: cell-based
Protocol: Cellular Fluorescence Assay 3
as §1, with “WaGa” for “MOLM-13”, “of WaGa” for “ofMOLM-13”

[3] = system: MKL-1 cells; assay: Cellular Fluorescence Assay 4 (CellTiter-Glo, 72 hours); format: cell-based
Protocol: Cellular Fluorescence Assay 4
as §1, with “MKL-1” for “MOLM-13”, “MKL-1” for “ofMOLM-13”, “reader. In some embodiments, the cyclic peptide described herein is a cyclic peptide depicted in Table 1: […]” for “reader.”

[4] = molecular target: T1, Human MDM2 (HDM2) 1-116 (Homo sapiens, UniProt Q00987); assay: Fluorescence Polarization Assay 1 (MDM2/p53 peptide); format: binding; conditions: FAM-labeled p53 peptide, 60 minutes
T1 construct: Human MDM2 (HDM2) 1-116
T1 sequence (Q00987 1-116): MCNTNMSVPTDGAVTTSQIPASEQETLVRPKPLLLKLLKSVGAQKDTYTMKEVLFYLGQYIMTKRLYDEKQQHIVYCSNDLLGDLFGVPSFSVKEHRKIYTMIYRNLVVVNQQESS
Protocol: Fluorescence Polarization Assay 1
(§2) Human MDM2 (HDM2) 1-116 (20 μL) and FAM-labeled GGTSFAEYWNLLSP-NH2, 10 nM and 5 nM respectively in 10 mM Tris, 50 mM NaCl, 0.01% Tween20, and 1 mM DTT at pH 7.4 were dispensed into an opaque, black, 384 well plate. Compounds dissolved in DMSO were pin transferred (˜100-200 nL) to the 384 well plate containing the MDM2/p53 solution. After incubation for 60 minutes, the fluorescence polarization was read on a Molecular Devices SpectraMax plate reader equipped with a Fluorescein FP cartridge. In addition to probe alone (positive control) and probe/MDM2 (negative control), a titration of linear p53(18-26) was included on every plate as an additional control. IC50 values were fit using either Prism or Collaborative Drug Discovery.

[5] = molecular target: T2, Human MDM4 (HDM4) 1-114 (Homo sapiens, UniProt O15151); assay: Fluorescence Polarization Assay 2 (MDM4/p53 peptide); format: binding; conditions: FAM-labeled p53 peptide, 60 minutes
T2 construct: Human MDM4 (HDM4) 1-114
T2 sequence (O15151 1-114): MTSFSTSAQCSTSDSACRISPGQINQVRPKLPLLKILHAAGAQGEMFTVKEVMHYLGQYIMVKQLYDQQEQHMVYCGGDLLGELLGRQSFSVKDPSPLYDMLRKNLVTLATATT
Protocol: Fluorescence Polarization Assay 2
as §2, with “MDM4 (HDM4) 1-114” for “MDM2 (HDM2) 1-116”, “GGTSFAEYWNLLSP —NH2, 20” for “GGTSFAEYWNLLSP-NH2, 10”, “(−100-200” for “(˜100-200”, “MDM4/p53” for “MDM2/p53”, “probe/MDM4” for “probe/MDM2”

[6] = system: MV4-11 cells; assay: Cellular Fluorescence Assay 2 (CellTiter-Glo, 72 hours); format: cell-based
Protocol: Cellular Fluorescence Assay 2
as §1, with “MV4-11” for “MOLM-13”, “of MV4-11” for “ofMOLM-13”

| Structure (SMILES) | IC50 [1] | IC50 [4] | IC50 [5] | IC50 [6] | IC50 [2] | IC50 [3] |
| --- | --- | --- | --- | --- | --- | --- |
| COCC[C@@H]1NC(=O)[C@H]2CCCN2C(=O)[C@H](Cc2ccccc2)N(C)C(=O)[C@H](Cc2ccc(Cl)cc2)NC(=O)[C@H](C(C)C)N(C)C(=O)[C@H](Cc2ccc(F)cc2)NC(=O)CN(C)C(=O)[C@@H](C)N(C)C(=O)[C@H](Cc2cncs2)NC(=O)[C@H](C)N(C)C1=O [compound 27] (cyclo([NMeA][Ala(thiazol-5-yl)][dNMeA][Sar][Phe(4-F)][NMeV][Phe(4-Cl)][NMeF][dP][hSer](Me))) | ≥ 150 nM | < 25 nM | ≥ 100 nM | 100 to 150 nM | 100 to 150 nM | 500 to 1000 nM |
| COCC[C@@H]1NC(=O)[C@H]2CCCN2C(=O)[C@H](Cc2ccccc2)N(C)C(=O)[C@H](Cc2ccc(Cl)cc2)NC(=O)[C@H](C(C)C)N(C)C(=O)[C@H](Cc2ccc(F)cc2)NC(=O)[C@H](C)N(C)C(=O)[C@@H](C)N(C)C(=O)[C@H](Cc2cncs2)NC(=O)[C@H](C)N(C)C1=O [compound 26] (cyclo([NMeA][Phe(4-F)][NMeV][Phe(4-Cl)][NMeF][dP][hSer](Me)[NMeA][Ala(thiazol-5-yl)][dNMeA])) | 100 to 150 nM | < 25 nM | 50 to 100 nM | 50 to 100 nM | 100 to 150 nM | 500 to 1000 nM |
| COCC[C@@H]1NC(=O)[C@H]2CCCN2C(=O)[C@H](Cc2ccc(F)cc2)N(C)C(=O)[C@H](Cc2ccc(Cl)cc2)NC(=O)[C@@H]2CCN2C(=O)[C@H](Cc2ccc(F)cc2)NC(=O)CN(CCOC)C(=O)[C@@H](C)N(C)C(=O)[C@H](Cc2cscn2)NC(=O)[C@H](C(C)C)N(C)C1=O [compound 22] (cyclo([Ala(4-thiazolyl)][dNMeA][Nme][Phe(4-F)][Aze][Phe(4-Cl)][NMePhe(4-F)][dP][hSer](Me)[NMeV])) | ≥ 150 nM | 25 to 50 nM | 25 to 50 nM | 50 to 100 nM | 50 to 100 nM | < 500 nM |
| CCCC(=O)O[C@H](C)[C@@H]1NC(=O)[C@H](Cc2ccc(F)cc2)NC(=O)CN(CCOC)C(=O)[C@@H](C)N(C)C(=O)[C@H](Cc2cscn2)NC(=O)[C@H](C)N(C)C(=O)[C@H](CCOC)NC(=O)[C@H]2CCCN2C(=O)[C@H](Cc2ccccc2)N(C)C(=O)[C@H](Cc2ccc(Cl)cc2)NC1=O [compound 6] (cyclo([Ala(4-thiazolyl)][dNMeA][Nme][Phe(4-F)]T(Butyryl)[Phe(4-Cl)][NMeF][dP][hSer](Me)[NMeA])) | 50 to 100 nM | 25 to 50 nM | 50 to 100 nM | < 50 nM | < 50 nM | < 500 nM |
| COCC[C@@H]1NC(=O)[C@H]2CCCN2C(=O)[C@H](Cc2ccc(F)cc2)N(C)C(=O)[C@H](Cc2ccc(Cl)cc2)NC(=O)[C@@H]2CCN2C(=O)[C@H](Cc2ccc(F)cc2)NC(=O)CN(CCOC)C(=O)[C@@H](C)N(C)C(=O)[C@H](Cc2cscn2)NC(=O)CN(C)C1=O [compound 23] (cyclo([Ala(4-thiazolyl)][dNMeA][Nme][Phe(4-F)][Aze][Phe(4-Cl)][NMePhe(4-F)][dP][hSer](Me)[Sar])) | ≥ 150 nM | 50 to 100 nM | 50 to 100 nM | ≥ 150 nM | ≥ 150 nM | ≥ 2000 nM |
| COCC[C@@H]1NC(=O)[C@H]2CCCN2C(=O)[C@H](Cc2ccc(F)cc2)N(C)C(=O)[C@H](Cc2ccc(Cl)cc2)NC(=O)[C@@H]2CCN2C(=O)[C@H](Cc2ccc(F)cc2)NC(=O)CN(CCOC)C(=O)[C@@H](C)N(C)C(=O)[C@H](Cc2cscn2)NC(=O)[C@@H]2CCCN2C1=O [compound 21] (cyclo([Ala(4-thiazolyl)][dNMeA][Nme][Phe(4-F)][Aze][Phe(4-Cl)][NMePhe(4-F)][dP][hSer](Me)P)) | ≥ 150 nM | 50 to 100 nM | 50 to 100 nM | ≥ 150 nM | ≥ 150 nM | 1000 to 2000 nM |

More lines, main results first:

| IC50 [1] | IC50 [4] | IC50 [5] | IC50 [6] | Structure (SMILES) | IC50 [2] | IC50 [3] |
| --- | --- | --- | --- | --- | --- | --- |
| ≥ 150 nM | 25 to 50 nM | ≥ 100 nM | ≥ 150 nM | CCCCN1CC(=O)N[C@@H](Cc2ccc(F)cc2)C(=O)N(C)C(C(C)C)C(=O)N[C@@H](Cc2ccc(Cl)cc2)C(=O)N(C)[C@@H](Cc2ccccc2)C(=O)N2CCC[C@@H]2C(=O)N[C@@H](CCOC)C(=O)N(C)[C@@H](C)C(=O)N[C@@H](Cc2cncs2)C(=O)N(C)[C@H](C)C1=O (stereo partly drawn) [compound 24] (cyclo([NMeA][Ala(thiazol-5-yl)][dNMeA][NBuGly][Phe(4-F)][ξNMeV][Phe(4-Cl)][NMeF][dP][hSer](Me))) | ≥ 150 nM | ≥ 2000 nM |
| ≥ 150 nM | < 25 nM | ≥ 100 nM | 100 to 150 nM | CCN1CC(=O)N[C@@H](Cc2ccc(F)cc2)C(=O)N(C)[C@@H](C(C)C)C(=O)N[C@@H](Cc2ccc(Cl)cc2)C(=O)N(C)[C@@H](Cc2ccccc2)C(=O)N2CCC[C@@H]2C(=O)N[C@@H](CCOC)C(=O)N(C)[C@@H](C)C(=O)N[C@@H](Cc2cncs2)C(=O)N(C)[C@H](C)C1=O [compound 25] (cyclo([NEtG][Phe(4-F)][NMeV][Phe(4-Cl)][NMeF][dP][hSer](Me)[NMeA][Ala(thiazol-5-yl)][dNMeA])) | ≥ 150 nM | 500 to 1000 nM |
| ≥ 150 nM | < 25 nM | ≥ 100 nM | 100 to 150 nM | CCC[C@H]1C(=O)N[C@@H](Cc2ccc(F)cc2)C(=O)N(C)[C@@H](C(C)C)C(=O)N[C@@H](Cc2ccc(Cl)cc2)C(=O)N(C)[C@@H](Cc2ccccc2)C(=O)N2CCC[C@@H]2C(=O)N[C@@H](CCOC)C(=O)N(C)[C@@H](C)C(=O)N[C@@H](Cc2cncs2)C(=O)N(C)[C@H](C)C(=O)N1C [compound 28] (cyclo([NMeA][Ala(thiazol-5-yl)][dNMeA][NMeNva][Phe(4-F)][NMeV][Phe(4-Cl)][NMeF][dP][hSer](Me))) | ≥ 150 nM | 1000 to 2000 nM |
